Measurements taken from PubChem BioAssay (NCI).
Values joined by “and” are separate entries in the source; they are usually repeats but may differ in a detail not shown here. Identical values can stand only once.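 1) Cells in 96-well plates. 2) Compound, 48 h, 5 concentrations. 3) Linear interpolation between surrounding doses. 4) Unreached endpoint = highest concentration. GI50 marks 50% less growth. At the TGI there is no net growth.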

Legend:
Assay in all cases: NCI-60 cell line screen, 48 h
[1] = system: LOX IMVI melanoma
[2] = system: 786-0 renal
[3] = system: HOP-92 NSCLC
[4] = system: SK-MEL-2 melanoma
[5] = system: PC-3 prostate
[6] = system: OVCAR-4 ovarian
[7] = system: NCI-H23 lung
[8] = system: OVCAR-8 ovarian
[9] = system: DMS 114 small cell lung
[10] = system: KM20L2 colon

| Compound | GI50 [1] | TGI [1] | GI50 [2] | TGI [2] | GI50 [3] | TGI [3] | GI50 [4] | TGI [4] | GI50 [5] | TGI [5] | GI50 [6] | TGI [6] | GI50 [7] | TGI [7] | GI50 [8] | TGI [8] | TGI [9] | TGI [10] |
| --- | --- | --- | --- | --- | --- | --- | --- | --- | --- | --- | --- | --- | --- | --- | --- | --- | --- | --- |
| Cc1c(C(=O)N/N=C/c2ccc(O)cc2)nnn1-c1ccnc2c(C(F)(F)F)cccc12 | 46.8 µM | > 100 µM | 44.4 µM | > 100 µM | 17 µM | 50.4 µM | > 100 µM | > 100 µM | > 100 µM | > 100 µM | 5.09 µM | > 100 µM | 29.3 µM | > 100 µM | 21.5 µM | > 100 µM | – | – |
| Cc1c(C(=O)CCl)c(=O)n(-c2ccccc2)n1C | 3.27 µM | 14.3 µM | 10.7 µM | 24.3 µM | 1.56 µM | 13.2 µM | 3.99 µM | 14.5 µM | 11.4 µM | 37.5 µM | 3.68 µM | 14.9 µM | 5.17 µM | 21.1 µM | 3.85 µM | 28.3 µM | – | – |
| COC1CCC2C(=O)CCCC2O1 (stereo unspecified) | – | – | – | > 100 µM | – | > 100 µM | – | > 100 µM | – | – | – | > 100 µM | – | > 100 µM | – | > 100 µM | > 100 µM | > 100 µM |
| Cc1c2ncccc2c(C)c2c1[nH]c1ccc(O)cc12 | 2.39 µM | 6.61 µM | 5.25 µM | 15.6 µM and 11.6 µM | – | 17.3 µM | – | 97.5 µM | 7.27 µM and 5.01 µM | 13.7 µM and 12.2 µM | – | 16 µM | 11.9 µM and 19 µM | – | 4.99 µM and 2.86 µM | 18.2 µM and 32.1 µM | – | – |
| COc1cc2c3c(n(CCCO)c(=O)c2cc1OC)-c1cc2c(cc1C3=O)OCO2 | 2.89 µM | 22.9 µM | 2.46 µM | 10.1 µM | 0.226 µM | 11.4 µM | 31.9 µM | > 100 µM | > 24.7 µM | > 81.7 µM | > 87.3 µM | > 100 µM | 6.75 µM | 28.3 µM | 13.7 µM | > 100 µM | – | – |
| Clc1ccc(N2COOC3(OOC2)C2CC4CC(C2)CC3C4)cc1 | 0.15 µM | 2.44 µM | 1.21 µM | 5.73 µM | 14.9 µM | 43.5 µM | 10.5 µM | > 88.3 µM | 5.11 µM | > 75.3 µM | 5.52 µM | > 59.5 µM | 11.5 µM | 31.6 µM | 14.4 µM | > 100 µM | – | – |
| COc1cc(-c2cc(C(=O)Nc3nc4ccccc4s3)nc3cc(-c4ccccc4)nn23)cc(OC)c1OC | 5.57 µM | > 100 µM | 2.59 µM | 12.8 µM | 0.775 µM | 5.24 µM | 11.2 µM | 27.7 µM | > 100 µM | > 100 µM | > 100 µM | > 100 µM | 11.5 µM | > 100 µM | 5.37 µM | > 100 µM | – | – |
| Cc1ccc2c(/C=C/C(=O)c3cc(CN4CCOCC4)c(O)c4nc(C)ccc34)cc(CN3CCOCC3)c(O)c2n1 | 0.454 µM | 1.79 µM | 1.4 µM | 5.45 µM | 1.11 µM | 9.78 µM | 0.623 µM | 13.1 µM | 0.577 µM | 19.1 µM | 0.637 µM | 2.43 µM | 1.13 µM | 4.5 µM | 0.588 µM | > 100 µM | – | – |
| Cc1ccc(C2=[N+]([O-])c3ccccc3C2=O)cc1 | – | 31.2 µM | – | 69.4 µM | – | 39.2 µM | – | 97.7 µM | – | – | – | – | – | > 31.6 µM | – | 36 µM | 28.2 µM | 98.6 µM |
| CCOC(=O)Oc1c(OC)cc(C(=O)c2ccc(OC)c(OC(=O)CCl)c2OC)cc1OC | 0.677 µM | > 100 µM | 3.45 µM | > 100 µM | 1.78 µM | > 100 µM | 0.668 µM | 60.2 µM | 2.83 µM | > 100 µM | 6.34 µM | > 100 µM | 3.86 µM | > 100 µM | 2.65 µM | > 100 µM | – | – |
| CC1/C=C/C=C/CC/C=C/C=C/C=C/C=C/C(OC2OC(C)C(O)C(N)C2O)CC2OC(CC(O)C(O)CCC(O)CC(O)CC(O)CC(=O)OC(C)C(C)C1O)CC(O)C2C(=O)O (stereo unspecified) | 24.1 µg/mL | 33.1 µM and 47.9 µg/mL | 25.8 µg/mL | 31.3 µM and 50.1 µg/mL | 42.5 µg/mL | > 100 µM and 150 µg/mL | 31.8 µg/mL | 92.4 µM and 94.1 µg/mL | 31.2 µg/mL | 36.4 µM and 75.7 µg/mL | 23.9 µg/mL | 29.4 µM and 52.5 µg/mL | 25.7 µg/mL | 35.6 µM and 50.3 µg/mL | 33.3 µg/mL | 47 µM and 74.6 µg/mL | – | – |
| Cc1c2[nH]c3ccc(Br)cc3c2c(C)c2[nH]ccc(=O)c12 | – | 32.7 µM | – | 25.1 µM | – | – | – | 33.8 µM | – | – | – | 31.3 µM | – | 37.8 µM | – | 76.9 µM | 35.2 µM | – |
| CCCCCCC(O)C/C=C/CCCCCC/C(C(=O)OC)=C(/O)C(=O)OCC (stereo unspecified) | – | > 100 µM | – | > 100 µM | – | > 100 µM | – | > 100 µM | – | – | – | > 100 µM | – | > 100 µM | – | > 100 µM | > 100 µM | – |
| CC(C)(C)C(=O)Nc1ccccc1Br | – | > 100 µM | – | > 100 µM | – | > 100 µM | – | > 100 µM | – | – | – | > 100 µM | – | – | – | > 100 µM | > 100 µM | > 100 µM |
| O=C1c2cccnc2-c2nc(-c3ccccn3)cc3c2c1nc1ccccc13 | 0.287 µM | 1.52 µM | 0.0825 µM | 0.26 µM | 0.241 µM | 0.729 µM | 1.06 µM | 2.52 µM | 0.557 µM | 1.85 µM | 0.0699 µM | 0.26 µM | 0.374 µM | 1.78 µM | 0.15 µM | 0.402 µM | – | – |
| CCN(CC)c1ccc2[nH]c3c(C(N)=O)cc(=O)c(=O)c=3oc2c1 | 0.581 µM | 6.3 µM | 2.42 µM | > 100 µM | 2.82 µM | 7.83 µM | 1.65 µM | 6.1 µM | 2.52 µM | > 100 µM | 2.03 µM | 11.5 µM | 1.4 µM | 5.17 µM | 2.05 µM | > 100 µM | – | – |
